Assay results as given in paper PMC8961551, “Potential Anticancer Agents against Melanoma Cells Based on an As-Synthesized Thiosemicarbazide Derivative” (Biomolecules, 2022).

Legend:
melanoma line G-361 [1] = assay: Annexin V / propidium iodide apoptosis assay (image cytometry); type: cell-based, human; conditions: G-361, 24 h, compound at IC50 concentration, representative histogram
Procedure: Cell apoptosis assays were performed using an NC 3000 system (Chemometec., Lillerød, Denmark) according to the manufacturer’s protocol for the Annexin V Assay. The G-361 cells were seeded in 6-well plates at a density of 2 × 10^5 cells/mL and the tested compounds with concentration IC50 were added when 70–80% of confluence was achieved. After 24 h incubation, cells were suspended in 100 μL of Annexin V binding buffer with 2 µL of Annexin V-CF488A conjugate (FITC-labeled annexin V) and 2 µL of Solution 15 (Hoechst33342 stains). In the next step, the cells were incubated for 15 min at 37 °C and subsequently centrifuged at 400× g for 5 min. Following the removal of the supernatant, the cell pellets were resuspended in 300 µL of Annexin V binding buffer and centrifuged twice under the conditions described above. Eventually, the cell pellets were resuspended in 100 µL of Annexin V binding buffer and 2 µL of Solution 16 (propidium iodide, which stains late apoptotic and necrotic cells) was added. The prepared samples were analyzed immediately using 2-chamber NC-Slides A2™ (Chemometec., Lillerød, Denmark) and the Annexin V Assay protocol. The obtained scatterplots were used to demarcate the percentage of healthy cells and early and late apoptotic cells. The experiment was performed three times with three replicates.

[2] = system: superoxide dismutase (SOD2); assay: qRT-PCR relative mRNA expression, SOD2; type: cell-based, human; conditions: G-361, 48 h incubation, RQ = 2^-ΔΔCt, mean ± SD, control 1.001
Procedure: […] cell line was seeded into 6-well plates in the concentration of 4 × 10^5 cells/well. Thiosemicarbazide derivatives were added when 70–80% of confluence was achieved. After 48 h of incubation, 1 mL of TRIzol™ Reagent (Invitrogen, Carlsbad, CA, USA) was added to lyse the cells. Lysates were centrifuged for 5 min at 12,000× g at 4 °C, and clear supernatants were processed according to the manufacturer’s protocol. Then, reverse transcription was performed using NG dART RT-PCR kit (EURx, Gdańsk, Poland) and a Mastercycler gradient thermocycler (Eppendorf, Hamburg, Germany). Thermal profile of the reaction: 10 min at 25 °C, then 50 min at 50 °C, and 5 min at 85 °C. mRNA levels of the genes DHODH, 18SRNA, and BACT were assessed using TaqMan Fast Advanced Master Mix (ThermoFisher, Waltham, MA, USA). mRNA levels of the following genes: CAT, SOD2,18SRNA TBP were assessed using PowerUp SYBR Green Master Mix (ThermoFisher, Waltham, MA, USA) in a 7500 Fast Real-Time PCR System (ThermoFisher, Waltham, MA, USA). Thermal profile of the reactions performed: 20 s at 95 °C, followed by 40 cycles of 3 s at 95 °C and 30 s at 60 °C. The reaction was carried out in triplicates. Relative expression of the tested genes was determined by qRT-PCR and the ΔΔCt method. The statistical analysis was performed with RQ values (relative quantification, RQ = 2^−∆ΔCt).

RP-HPLC lipophilicity = type: physicochemical; conditions: for logkW (chromatographic lipophilicity parameter): Kinetex C18, methanol-water 55-80%, extrapolated to 0% methanol; for -S HPLC (slope of linear equation): Table S3
Procedure: RP-HPLC analysis was performed using a Merck-Hitachi LaChrom Elite System (Merck, Darmstadt, Germany) with diode array detector L-2455, thermostat L-2300, pump L-2130 and autosampler L-2200 with a Kinetex C18 (5µm; 150 × 4,6mm) chromatographic column (Phenomenex, Torrance, USA) as the stationary phase. The mobile phase consisted of methanol (Merck, Darmstadt, Germany) and water (double-distilled), which was degassed by use of the built-in membrane degasser. Subsequently, 5 μL methanolic solution (0.1%; m/v) of the selected samples was applied to the chromatographic column by use of a Hitachi L-2200 autosampler (LaChrom Elite, Hitachi-Merck, Darmstadt, Germany). The analysis was performed with a flow rate of 0.7 mL min^−1 in isocratic mode using various concentrations of organic modifier (methanol) in binary polar mobile phases; percentages of methanol in water were 55–80% (%, v/v) and changed by 5% per step. Chromatograms were detected at 254 nm and the temperature of the column was 25 °C. All experiments were repeated in triplicate and the final results were taken to be the arithmetic means. Dead time was measured using uracil (Calbiochem. Merck, Darmstadt, Germany).

melanoma line G-361 [3] = assay: Two-step cell cycle analysis (DAPI, image cytometry); type: cell-based, human; conditions: G-361, 24 h, IC50 concentration
Procedure: Cell-cycle assays was performed using NC 3000 system (Chemometec., Lillerød, Denmark) according to manufacturer’s protocol for the two-step cell cycle analysis. The G-361 cells were seeded in 12-well plates at a density of 1 × 10^5 cells/well, and the tested compounds with concentration IC50 were added when 70–80% of confluence was achieved. After 24 h of incubation with tested compounds, the cells were washed with PBS and thoroughly resuspended in 250 μL lysis buffer supplemented with 10 μg/mL DAPI. After 5 min incubation at 37 °C, cells were mixed with 250 μL stabilization buffer and loaded into the 8-chamber slide NC-Slide A8 (Chemometec., Lillerød, Denmark). Cellular fluorescence was quantified using a NucleoCounter® NC-3000™ image cytometer (Chemometec., Lillerød, Denmark). The obtained DNA content histograms were used to demarcate different phases of the cell cycle in tested samples. The experiments were performed three times with three replicates.

[4] = system: gastric cancer cell line MKN74; parameters: method as in PMID 22741788; conditions: MKN74 gastric cancer cells ref 9; cited from earlier work

CSc1ccc(NC(=S)NNC(=O)COc2ccc(Cl)cc2Cl)cc1 [PK2, 1-(2,4-dichlorophenoxy)acetyl-4-(4-metylothiophenyl)thiosemicarbazide]
Q1ll, normal cells (melanoma line G-361 [1]): 52% | Q1lr, early apoptotic cells (melanoma line G-361 [1]): 7% | Q1ul, necrotic cells (melanoma line G-361 [1]): 2% | Q1ur, late apoptotic cells (melanoma line G-361 [1]): 39% | Relative mRNA expression level SOD2 (RQ) [2]: 1.486 ± 0.056 | logkW (chromatographic lipophilicity parameter) (RP-HPLC lipophilicity): 4.7804 | -S HPLC (slope of linear equation) (RP-HPLC lipophilicity): 6.3581

O=C(COc1ccc(Cl)cc1Cl)NNC(=S)Nc1ccccc1I [PK6, 1-(2,4-dichlorophenoxy)acetyl-4-(2-iodophenyl)thiosemicarbazide]
Q1ll, normal cells (melanoma line G-361 [1]): 30% | Q1lr, early apoptotic cells (melanoma line G-361 [1]): 17% | Q1ul, necrotic cells (melanoma line G-361 [1]): 4% | Q1ur, late apoptotic cells (melanoma line G-361 [1]): 49% | Relative mRNA expression level SOD2 (RQ) [2]: 1.249 ± 0.080 | logkW (chromatographic lipophilicity parameter) (RP-HPLC lipophilicity): 4.1439 | -S HPLC (slope of linear equation) (RP-HPLC lipophilicity): 5.4574

O=C(COc1ccc(Cl)cc1Cl)NNC(=S)Nc1cccc2ccccc12 [PK9, 1-(2,4-dichlorophenoxy)acetyl-4-(1-naphtyl)thiosemicarbazide]
Q1ll, normal cells (melanoma line G-361 [1]): 32% | Q1lr, early apoptotic cells (melanoma line G-361 [1]): 28% | Q1ul, necrotic cells (melanoma line G-361 [1]): 1% | Q1ur, late apoptotic cells (melanoma line G-361 [1]): 39% | effect on cell cycle (melanoma line G-361 [3]): no cell cycle arrest was observed | Relative mRNA expression level SOD2 (RQ) [2]: 1.293 ± 0.100 | logkW (chromatographic lipophilicity parameter) (RP-HPLC lipophilicity): 4.6425 | -S HPLC (slope of linear equation) (RP-HPLC lipophilicity): 6.1619 | effect on cell cycle [4]: inhibited the cell cycle in S and G2 phases
